Results on 14 compounds are retold here after patent publication US20260325533A1, “CDK INHIBITOR COMPOUNDS” (ALEKSIA THERAPEUTICS, INC., priority 2023, published 2026).

Where two headings read alike, the source gives them in different places. Where only a bound is given, the exact number is not on record here.

Holding throughout (assay type): biochemical
Assay [1] deals with CDK4/CCND3 (Homo sapiens, UniProt P11802). Description: CDK4 homogeneous time-resolved fluorescence (HTRF) kinase assay. The note with it: CDK4/CCND. An outline of the steps:
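IC50 values were derived from 11-point half-log dilutions, usually starting at 10 μM. Compound was first held for 20 min at 23 °C with 1.5 nM CDK4/CCND3. 1 mM ATP and 50 nM ULight-eIF4E-BP1 (Thr37/46) substrate were then added for 60 min, and the TR-FRET 665 nm signal was measured after EDTA stop and Eu-anti-phospho-4E-BP1 detection.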

Assay [2] addresses CDK1/CCNB1 (Homo sapiens, UniProt P06493). Kind of assay: CDK1 homogeneous time-resolved fluorescence (HTRF) kinase assay. The note with it: CDK1/CCNB. A digest of the protocol:
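HTRF assay with 0.5 nM CDK1/CCNB1, 1 mM ATP, 50 nM ULight-eIF4E-BP1 (Thr37/46) peptide; compound preincubated 20 min, reaction 60 min at 23 °C, EDTA stop, Eu-anti-phospho antibody detection. 11-point half-log titration from 10 μM, 1% DMSO; IC50 from 665 nm or 665/615 signal.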

Assay [3] deals with CDK6/CCND1 (Homo sapiens, UniProt Q00534). Kind of assay: CDK6 homogeneous time-resolved fluorescence (HTRF) kinase assay. The note with it: CDK6/CCND. A digest of the protocol:
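Recombinant CDK6/CCND1 (1 nM final) was preincubated with compound for 20 min at 23 °C in HEPES buffer with MgCl2, EGTA, DTT and Tween 20. Kinase reaction then ran 60 min at 23 °C with 1 mM ATP and 50 nM ULight-4E-BP1 (Thr37/46) peptide, and was stopped with EDTA.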

Assay [4] addresses CDK2/CCNE1 (Homo sapiens, UniProt P24941). Description: CDK2 homogeneous time-resolved fluorescence (HTRF) kinase assay. The settings on record: CDK2/CCNE. A digest of the protocol:
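IC50 derived from 11-point, half-log dilutions (usually top 10 μM) of compound, 1% DMSO. Kinase (3 nM CDK2/CCNE1) was preincubated with compound 20 min, then phosphorylated 50 nM ULight-4E-BP1 peptide at 1 mM ATP for 60 min, 23 °C. Europium-antibody TR-FRET read after EDTA stop.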

[5] abbreviates: >250 nM, read-out: CDK4/CCND IC50, >250 nM.
Setting [6] is: >250 nM, read-out: CDK1/CCNB IC50 >250 nM.
[7] abbreviates: >250 nM, 1 mM ATP, read-out: CDK6/CCND IC50, >250 nM.
[8] abbreviates: 25-250 nM, read-out: CDK2/CCNE IC50, 25-250 nM.
Where [9] appears, read: 25-250 nM, read-out: CDK4/CCND IC50, 25-250 nM.
Setting [10] is: <25 nM, read-out: CDK2/CCNE IC50, <25 nM.
Where [11] appears, read: 25-250 nM, 1 mM ATP, read-out: CDK6/CCND IC50, 25-250 nM.
The mark [12] stands for this setting: 25-250 nM marked x, read-out: CDK4/CCND IC50 25-250 nM.
Where [13] appears, read: >250 nM marked x, read-out: CDK1/CCNB IC50 >250 nM.
The mark [14] stands for this setting: >250 nM marked x, read-out: CDK6/CCND IC50 >250 nM.
[15] abbreviates: <25 nM, read-out: CDK2/CCNE IC50 <25 nM.
The mark [16] stands for this setting: 25-250 nM marked x, read-out: CDK1/CCNB IC50 25-250 nM.
[17] abbreviates: 25-250 nM marked x, read-out: CDK6/CCND IC50 25-250 nM.

Chain of CDK1/CCNB1 (P06493 whole entry): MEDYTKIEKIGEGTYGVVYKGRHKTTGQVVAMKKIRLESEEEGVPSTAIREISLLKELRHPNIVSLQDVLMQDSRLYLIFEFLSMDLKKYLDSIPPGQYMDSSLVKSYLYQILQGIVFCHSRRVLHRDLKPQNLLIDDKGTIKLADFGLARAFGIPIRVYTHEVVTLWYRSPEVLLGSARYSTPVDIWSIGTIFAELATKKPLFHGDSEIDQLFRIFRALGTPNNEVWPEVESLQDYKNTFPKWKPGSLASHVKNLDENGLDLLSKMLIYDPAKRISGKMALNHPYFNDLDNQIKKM
Chain of CDK1/CCNB1 (P14635 whole entry partner): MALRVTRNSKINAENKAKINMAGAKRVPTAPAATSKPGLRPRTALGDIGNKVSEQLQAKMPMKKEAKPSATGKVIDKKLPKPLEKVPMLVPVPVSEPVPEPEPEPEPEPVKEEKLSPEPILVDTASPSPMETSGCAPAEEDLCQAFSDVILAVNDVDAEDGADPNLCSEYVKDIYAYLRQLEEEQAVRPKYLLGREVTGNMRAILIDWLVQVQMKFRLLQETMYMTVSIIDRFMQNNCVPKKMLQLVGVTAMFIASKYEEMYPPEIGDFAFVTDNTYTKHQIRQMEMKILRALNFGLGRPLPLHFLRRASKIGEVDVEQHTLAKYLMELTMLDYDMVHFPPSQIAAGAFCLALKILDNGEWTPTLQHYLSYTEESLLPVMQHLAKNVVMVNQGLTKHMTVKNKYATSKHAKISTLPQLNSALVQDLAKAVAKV
Chain of CDK4/CCND3 (P11802 whole entry): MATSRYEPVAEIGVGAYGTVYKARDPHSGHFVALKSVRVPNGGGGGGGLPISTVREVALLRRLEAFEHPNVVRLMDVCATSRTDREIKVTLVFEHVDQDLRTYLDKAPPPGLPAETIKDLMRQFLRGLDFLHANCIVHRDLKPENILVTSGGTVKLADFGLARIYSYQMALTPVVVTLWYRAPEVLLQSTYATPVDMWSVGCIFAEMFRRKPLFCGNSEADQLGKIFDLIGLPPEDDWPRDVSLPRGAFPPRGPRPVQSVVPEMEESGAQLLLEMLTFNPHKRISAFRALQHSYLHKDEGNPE
Chain of CDK4/CCND3 (P30281 whole entry partner): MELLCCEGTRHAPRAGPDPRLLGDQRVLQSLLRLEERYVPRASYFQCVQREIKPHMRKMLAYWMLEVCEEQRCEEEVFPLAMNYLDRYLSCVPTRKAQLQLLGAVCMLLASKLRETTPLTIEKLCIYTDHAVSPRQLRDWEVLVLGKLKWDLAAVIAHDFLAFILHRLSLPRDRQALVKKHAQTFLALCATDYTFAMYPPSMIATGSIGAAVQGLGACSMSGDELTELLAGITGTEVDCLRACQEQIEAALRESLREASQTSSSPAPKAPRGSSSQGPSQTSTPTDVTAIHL
Chain of CDK6/CCND1 (Q00534 whole entry): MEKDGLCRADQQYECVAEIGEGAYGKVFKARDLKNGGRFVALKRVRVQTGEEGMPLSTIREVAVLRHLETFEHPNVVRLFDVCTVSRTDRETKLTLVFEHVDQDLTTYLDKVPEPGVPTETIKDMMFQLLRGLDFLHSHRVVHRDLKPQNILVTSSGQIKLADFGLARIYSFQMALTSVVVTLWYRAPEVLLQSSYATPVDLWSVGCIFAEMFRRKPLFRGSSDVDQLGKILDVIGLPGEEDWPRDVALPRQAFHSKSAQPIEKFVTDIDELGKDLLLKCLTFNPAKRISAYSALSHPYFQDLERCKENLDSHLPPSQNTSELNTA
Chain of CDK6/CCND1 (P24385 whole entry partner): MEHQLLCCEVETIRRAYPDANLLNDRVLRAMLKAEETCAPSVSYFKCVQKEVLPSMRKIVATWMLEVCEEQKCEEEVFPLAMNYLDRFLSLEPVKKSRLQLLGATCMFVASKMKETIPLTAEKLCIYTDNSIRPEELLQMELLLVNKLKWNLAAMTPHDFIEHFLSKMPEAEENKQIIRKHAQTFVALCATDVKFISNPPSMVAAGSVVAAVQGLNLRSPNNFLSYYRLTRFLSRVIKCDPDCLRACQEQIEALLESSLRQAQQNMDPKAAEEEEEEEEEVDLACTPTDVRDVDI

Regarding `Cc1c(-c2nccc3cnc(Nc4ccc(S(=N)(=O)NC5CCC5)cc4)cc23)ccc2c1cnn2CC(O)(C(F)(F)F)C(F)(F)F` (single isomer, unassigned) [Ex 680, N-cyclobutyl-4-((5-(4-methyl-1-(3,3,3-trifluoro-2-hydroxy-2-(trifluoromethyl)propyl)-1H-indazol-5-yl)-2,6-naphthyridin-3-yl)amino)benzenesulfonimidamide], the IC50 is over 250 nM in assay [1] (setting [5]), over 250 nM in assay [2] (setting [6]), over 250 nM in assay [3] (setting [7]) and 25 to 250 nM in assay [4] (setting [8]).
As for `Cc1c(-c2nccc3cnc(Nc4ccc(S(=N)(=O)NC5CC5)cc4)cc23)ccc2c1cnn2CC(O)(C(F)(F)F)C(F)(F)F` (single isomer, unassigned) [Ex 681, N-cyclopropyl-4-((5-(4-methyl-1-(3,3,3-trifluoro-2-hydroxy-2-(trifluoromethyl)propyl)-1H-indazol-5-yl)-2,6-naphthyridin-3-yl)amino)benzenesulfonimidamide], the IC50 is 25 to 250 nM in assay [1] (setting [9]), over 250 nM in assay [2] (setting [6]), over 250 nM in assay [3] (setting [7]) and under 25 nM in assay [4] (setting [10]).
Take `CNS(=N)(=O)c1ccc(Nc2cc3c(-c4ccc5c(cnn5CC(O)(C(F)(F)F)C(F)(F)F)c4C)nccc3cn2)cc1` (single isomer, unassigned) [Ex 683, N-methyl-4-((5-(4-methyl-1-(3,3,3-trifluoro-2-hydroxy-2-(trifluoromethyl)propyl)-1H-indazol-5-yl)-2,6-naphthyridin-3-yl)amino)benzenesulfonimidamide]: the IC50 was 25 to 250 nM in assay [1] (setting [9]), over 250 nM in assay [2] (setting [6]), 25 to 250 nM in assay [3] (setting [11]) and under 25 nM in assay [4] (setting [10]).
For the compound `Cc1c(-c2nccc3cnc(Nc4ccc(S(=N)(=O)Nc5ccccc5)cc4)cc23)ccc2c1cnn2CC(O)(C(F)(F)F)C(F)(F)F` (single isomer, unassigned) [Ex 685, 4-((5-(4-methyl-1-(3,3,3-trifluoro-2-hydroxy-2-(trifluoromethyl)propyl)-1H-indazol-5-yl)-2,6-naphthyridin-3-yl)amino)-N-phenylbenzenesulfonimidamide], the IC50 in assay [1] (setting [5]) was over 250 nM; in assay [2] (setting [6]), over 250 nM; in assay [3] (setting [7]), over 250 nM; in assay [4] (setting [8]) it was 25 to 250 nM.
In the case of `CC1(C)C(=O)Nc2cc(C#Cc3nccc4cnc(Nc5ccc(S(=N)(=O)NC6CCC6)cc5)cc34)ccc21` (single isomer, unassigned) [Ex 688, N-cyclobutyl-4-((5-((3,3-dimethyl-2-oxoindolin-6-yl)ethynyl)-2,6-naphthyridin-3-yl)amino)benzenesulfonimidamide], the IC50 in assay [1] (setting [9]) is 25 to 250 nM; in assay [2] (setting [6]) it was over 250 nM; in assay [3] (setting [11]) it was 25 to 250 nM; in assay [4] (setting [10]) it was under 25 nM.
On to `CCNS(=N)(=O)c1ccc(Nc2cc3c(-c4ccc5c(cnn5CC(O)(C(F)(F)F)C(F)(F)F)c4C)nccc3cn2)cc1` (single isomer, unassigned) [Ex 692, N-ethyl-4-((5-(4-methyl-1-(3,3,3-trifluoro-2-hydroxy-2-(trifluoromethyl)propyl)-1H-indazol-5-yl)-2,6-naphthyridin-3-yl)amino)benzenesulfonimidamide], for which the IC50 in assay [1] (setting [9]) was 25 to 250 nM; in assay [2] (setting [6]), over 250 nM; in assay [3] (setting [11]), 25 to 250 nM; in assay [4] (setting [10]), under 25 nM.
Turning to `CC(C)S(=N)(=O)c1ccc(Nc2cc3c(C#Cc4cc5c(cc4N)C(C)(C)C(=O)N5)nccc3cn2)cc1` (single isomer, unassigned) [Example 270, 5-amino-3,3-dimethyl-6-((7-((4-(propan-2-ylsulfonimidoyl)phenyl)amino)-2,6-naphthyridin-1-yl)ethynyl)indolin-2-one], the IC50 in assay [1] (setting [12]) was 25 to 250 nM; in assay [2] (setting [13]), over 250 nM; in assay [3] (setting [14]), over 250 nM; in assay [4] (setting [15]), under 25 nM.
In the case of `CC(C)S(=N)(=O)c1ccc(Nc2cc3c(C#Cc4ccc5c(c4)NC(=O)C5(C)CCO)nccc3cn2)cc1` (single isomer, unassigned) [Example 271, 3-(2-hydroxyethyl)-3-methyl-6-((7-((4-(propan-2-ylsulfonimidoyl)phenyl)amino)-2,6-naphthyridin-1-yl)ethynyl)indolin-2-one], the IC50 in assay [1] (setting [12]) was 25 to 250 nM; in assay [2] (setting [16]), 25 to 250 nM; in assay [3] (setting [17]) it was 25 to 250 nM; in assay [4] (setting [15]) it was under 25 nM.
Regarding `N=S(=O)(c1ccc(Nc2cc3c(C#Cc4ccc5c(c4)NC(=O)C54CC4)nccc3cn2)c(F)c1)C1COC1` (single isomer, unassigned) [Example 275, 6′-((7-((2-fluoro-4-(oxetane-3-sulfonimidoyl)phenyl)amino)-2,6-naphthyridin-1-yl)ethynyl)spiro[cyclopropane-1,3′-indolin]-2′-one], the IC50 was 25 to 250 nM in assay [1] (setting [12]), over 250 nM in assay [2] (setting [13]), over 250 nM in assay [3] (setting [14]) and under 25 nM in assay [4] (setting [15]).
Regarding `CC(C)S(=N)(=O)c1ccc(Nc2cc3c(C#Cc4ccc5c(c4)NC(=O)C5(C)O)nccc3cn2)cc1` (single isomer, unassigned) [Example 279, 3-hydroxy-3-methyl-6-((7-((4-(propan-2-ylsulfonimidoyl)phenyl)amino)-2,6-naphthyridin-1-yl)ethynyl)indolin-2-one], the IC50 in assay [1] (setting [12]) was 25 to 250 nM; in assay [2] (setting [16]) it was 25 to 250 nM; in assay [3] (setting [17]), 25 to 250 nM; in assay [4] (setting [15]), under 25 nM.
Take `COc1cc(S(=N)(=O)C2CC2)ccc1Nc1cc2c(C#Cc3ccc4c(c3)NC(=O)C43CCC3)nccc2cn1` (single isomer, unassigned) [Example 296, 6′-((7-((4-(cyclopropanesulfonimidoyl)-2-methoxyphenyl)amino)-2,6-naphthyridin-1-yl)ethynyl)spiro[cyclobutane-1,3′-indolin]-2′-one]: the IC50 is over 250 nM in assay [1] (>250 nM marked x, read-out: CDK4/CCND IC50 >250 nM); over 250 nM in assay [2] (setting [13]); over 250 nM in assay [3] (setting [14]); under 25 nM in assay [4] (setting [15]).
Consider `Cc1cc2c(cc1C#Cc1nccc3cnc(Nc4ccc(S(=N)(=O)C(C)C)cc4)cc13)NC(=O)C2(C)C` (single isomer, unassigned) [Example 315, 3,3,5-trimethyl-6-((7-((4-(propan-2-ylsulfonimidoyl)phenyl)amino)-2,6-naphthyridin-1-yl)ethynyl)indolin-2-one], for which the IC50 is 25 to 250 nM in assay [1] (setting [12]), over 250 nM in assay [2] (setting [13]), over 250 nM in assay [3] (setting [14]) and under 25 nM in assay [4] (setting [15]).
As to `COCC1(COC)C(=O)Nc2cc(C#Cc3nccc4cnc(Nc5ccc(S(=N)(=O)C(C)C)cc5)cc34)ccc21` (single isomer, unassigned) [Example 321, 3,3-bis(methoxymethyl)-6-((7-((4-(propan-2-ylsulfonimidoyl)phenyl)amino)-2,6-naphthyridin-1-yl)ethynyl)indolin-2-one], the IC50 in assay [1] (setting [12]) was 25 to 250 nM; in assay [2] (setting [16]), 25 to 250 nM; in assay [3] (setting [14]), over 250 nM; in assay [4] (setting [15]), under 25 nM.
Consider `CC(C)S(=N)(=O)c1ccc(Nc2cc3c(C#Cc4ccc5c(c4)NC(=O)C5(C)CO)nccc3cn2)cc1` (single isomer, unassigned) [Example 328, 3-(hydroxymethyl)-3-methyl-6-((7-((4-(propan-2-ylsulfonimidoyl)phenyl)amino)-2,6-naphthyridin-1-yl)ethynyl)indolin-2-one], for which the IC50 in assay [1] (setting [12]) is 25 to 250 nM; in assay [2] (setting [16]), 25 to 250 nM; in assay [3] (setting [14]), over 250 nM; in assay [4] (setting [15]) it was under 25 nM.
